Test results from paper PMC10328330 (PLOS ONE, 2023).

Legend:
[1] = tested on: mice; design: method as in PMID 23791825; conditions: cited from earlier work
[2] = tested on: T. gondii (ME49 strain); assay: Efficacy in mice chronically infected with T. gondii (brain cysts, qPCR parasite burden); assay type: in vivo, Toxoplasma gondii; conditions: C57BL/6 mice chronically infected with ME49
Procedure: Chronic infection in Male C57/BL/6 mice (4 weeks-old) was obtained by intraperitoneal injection of brain tissue cysts (ME49 strain) as previously described. The cysts were obtained by directly macerating the brain tissue of previously chronically infected mice in 5 mL of saline solution. The resulting mixture was then subjected to a counting procedure using a Neubauer chamber under a microscope to determine the concentration of the cysts. To prepare the cysts for injection, they were further diluted in saline solution to achieve the desired concentration of 10 cysts per animal. Subsequently, the mice in the experiment were infected with these freshly obtained brain cysts via intraperitoneal injection. The animals were considered chronically infected 40 days post-infection, according to the protocol described by. […] Additionally, the presence of brain cysts, known to be responsible for the observed symptoms, further confirmed the chronic infection status.
Forty days after infection, chronically infected mice were randomly assigned into experimental groups (n = 4 per group). […] On day 51 post-infection, all animals were euthanized, and their brains were collected for analyses. The brains were used for microscopic counting of cysts, measurement of cysts area, RNA extraction, and quantification. For microscopic counting, 25 μL of macerated organ was utilized, while 200 μL was used for RNA extraction. Cysts area was measured using ImageJ software, available at https://imagej.nih.gov/ij/.
We performed a serial dilution of cultured tachyzoites of T. gondii (RH strain), ranging from 5×10^6 to 7.8×10^4 forms per mL. DNA samples were extracted from each point of the serial dilution (in duplicate samples), and real-time PCR was performed. The resulting data were used to plot the cycle threshold value (CT) against varying amounts of parasites, ultimately generating a standard curve. […]
Each DNA and cDNA samples were analysed by quantitative real-time PCR using the set of primers Rep529, which amplified a T. gondii repetitive DNA fragment. […]

For `C=CCNc1nc(NCC=C)nc(N2CCN(C(c3ccc(F)cc3)c3ccc(F)cc3)CC2)n1` [almitrine bismesylate], the LD50 [1] is given as > 200 mg/kg, the “parasite burden in the brains (real-time PCR)” value ([2]; 25 mg/kg/day oral for 10 days, RNA of living parasites by qPCR, vs vehicle control group) is given as “statistically significant (p < 0.001) reduction” and the cysts area ([2]; 12.5 and 25 mg/kg/day oral for 10 days from day 40 post-infection, microscopy of brain macerates, ImageJ, vs vehicle) is given as “significant reduction (p < 0.05)”. For the same compound, the “number of brain cysts” value ([2]; 12.5 and 25 mg/kg/day oral for 10 days from day 40 post-infection, microscopy of brain macerates, vs vehicle) was “significant reduction (p < 0.05)”.
